Results from patent publication US20190216829A1, “Anticancer Compositions” (ARAGON PHARMACEUTICALS, INC., priority 2016, published 2019).
In brackets after ≈: the same amount, converted by molar mass.

Assay: Solubility of ARN-509 forms in water
Format: physicochemical
Procedure: Solubility of Form A: 0.01 mg/ml in water.
Solubility of Form B: 0.004 mg/ml in water.

Solubility [µg/mL] | SMILES
4 (≈ 8.38 µM) | CNC(=O)c1ccc(N2C(=S)N(c3cnc(C#N)c(C(F)(F)F)c3)C(=O)C23CCC3)cc1F [Form B, 4-[7-(6-cyano-5-trifluoromethylpyridin-3-yl)-8-oxo-6-thioxo-5,7-diazaspiro[3.4]oct-5-yl]-2-fluoro-N-methylbenzamide]
10 (≈ 20.9 µM) | CNC(=O)c1ccc(N2C(=S)N(c3cnc(C#N)c(C(F)(F)F)c3)C(=O)C23CCC3)cc1F [Form A, 4-[7-(6-cyano-5-trifluoromethylpyridin-3-yl)-8-oxo-6-thioxo-5,7-diazaspiro[3.4]oct-5-yl]-2-fluoro-N-methylbenzamide]
